Measurements as given in patent US20250019335A1, “NOVEL QUINIZARIN DERIVATIVE AND PREPARATION METHOD THEREOF” (BENOBIO CO., LTD., priority 2021, published 2025).

Key:
[1] = target: T1, BRD2(BD2) (Homo sapiens, UniProt P25440); assay: Binding inhibition ability test for BRD2 protein (AlphaScreen, GST BRD2 / biotinylated acetyl histone H4 peptide); settings: 100 nM GST BRD2, 100 nM biotinylated acetyl histone H4 (Lys5, 8, 12, 16) peptide, Alpha Screen
T1 construct: a mixture of 100 nM GST BRD2 (BD1, BD2, BD1+BD2) and 100 nM biotinylated acetyl histone H4
Description: To confirm a binding inhibitory effect of a quinizarin derivative of the present disclosure on a BRD2 protein among BET proteins, the following experiment was performed.
First, a compound was diluted in 1:5 subdilution in an assay buffer from a 10 mM stock in dimethyl sulfoxide (DMSO) in a white Optiplate.
Then, a mixture of 100 nM GST BRD2 (BD1, BD2, BD1+BD2) and 100 nM biotinylated acetyl histone H4 (Lys5, 8, 12, 16) peptides was added to the diluent, and then each sample was shaking-cultured in the dark at 300 rpm for 30 minutes at room temperature.
Thereafter, signals were measured with a PerkinElmer Envision HTS Multilabel Reader using a PerkinElmer Alpha Screen protocol.

[2] = test system: HepG2 cells; assay: Lipogenesis inhibition in palmitic acid-induced fatty liver HepG2 cells (Oil red O staining); assay type: cell-based, human; settings: pretreated 1 μM to 10 μM, 100 μM palmitic acid 24 hours
Description: HepG2 cell lines, human liver epithelial cells, were incubated, pretreated with quinizarin and a substance of Example 2 (BBC0504) at concentrations of 1 μM to 10 μM, and treated with 100 μM palmitic acid (PA) for 24 hours to induce fatty liver at a cellular level. After 24 hours, the cells in each sample were immobilized for 1 hour with a phosphate-buffered salt solution containing 7% formaldehyde, washed with PBS, and stained with a 99% isopropanol solution containing 1% Oil red O for 10 minutes. The differentiation degree of adipocytes was measured by dissolving the stained Oil red O in isopropanol and measuring the absorbance at 510 nm.
Referring to FIG. 11, HepG2 cells, which are human liver epithelial cells, were treated with palmitic acid to induce fatty liver, and the ability to inhibit lipogenesis was confirmed at each concentration in Example 2.

[3] = test system: SREBP-1; assay: Expression of liposynthesis factor SREBP-1 in palmitic acid-treated HepG2 cells (RT-PCR); assay type: cell-based, human; settings: pretreated 1 μM to 10 μM, 100 μM palmitic acid 24 hours
Description: (§1) HepG2 cell lines, human liver epithelial cells, were incubated, pretreated with quinizarin and a substance of Example 2 (BBC0504) at concentrations of 1 μM to 10 μM, and treated with 100 μM palmitic acid (PA) for 24 hours to induce fatty liver at a cellular level. After 24 hours, the expression of lipogenesis-related genes SREBP-1 and FAS in cells in each sample was confirmed using RT-PCR. Each sample was added with a trizol reagent to extract total RNA, and the concentration was confirmed using a spectrophotometer. To synthesize cDNA for each gene, RT-PCR reaction was performed using primers targeting the SREBP-1 and FAS genes. β-actin was used as a control group, and after the reaction was completed, the detected cDNA product was confirmed by electrophoresis on a 1.0% agarose gel.
FIG. 13 illustrates a result of confirming SREBP-1 expression after treating fatty liver-induced cells for each concentration with a quinizarin derivative according to an embodiment of the present disclosure.

[4] = test system: FAS; assay: Expression of liposynthesis factor FAS in palmitic acid-treated HepG2 cells (RT-PCR); assay type: cell-based, human; settings: pretreated 1 μM to 10 μM, 100 μM palmitic acid 24 hours
Description: as §1
FIG. 14 illustrates a result of confirming FAS expression after treating fatty liver-induced cells with a quinizarin derivative at each concentration according to an embodiment of the present disclosure.

T1 sequence (P25440 344-453 limits assumed, species assumed): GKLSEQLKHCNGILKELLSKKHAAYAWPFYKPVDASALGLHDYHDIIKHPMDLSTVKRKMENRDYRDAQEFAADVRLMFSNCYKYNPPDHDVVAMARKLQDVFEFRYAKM

| Structure (SMILES) | IC50 [1] | lipogenesis amount (Oil red O absorbance at 510 nm) [2] | SREBP-1 gene expression [3] | FAS gene expression [4] |
| --- | --- | --- | --- | --- |
| O=C1c2ccccc2C(=O)c2c(O)c(-c3ccc(O)c(O)c3)cc(O)c21 [Example 1] | 1740 nM |  |  |  |
| O=C1c2ccccc2C(=O)c2c3c(cc(O)c21)OCCO3 [Example 5] | 2730 nM |  |  |  |

The remaining molecules from weak to strong by IC50 [1], led by results:

| IC50 [1] | Structure (SMILES) | lipogenesis amount (Oil red O absorbance at 510 nm) [2] | SREBP-1 gene expression [3] | FAS gene expression [4] |
| --- | --- | --- | --- | --- |
| 4440 nM | O=C1c2ccc(-c3ccc(O)c(O)c3)cc2C(=O)c2c(O)ccc(O)c21 [Example 2] | reduced in a concentration-dependent manner | reduced depending on a concentration | reduced depending on a concentration |
| 3120 nM | O=C1c2ccccc2C(=O)c2c(OC3COC3)ccc(O)c21 [Example 4] |  |  |  |
| 1750 nM | O=C1c2ccccc2C(=O)c2c(O)cc(-c3ccc(O)c(O)c3)cc21 [Example 3] |  |  |  |
